{"source": "patent US20230063321A1", "about": "“Methods for Treating Inflammatory Bowel Diseases with alpha4beta7 Integrin Antagonists” (Protagonist Therapeutics, Inc., priority 2020, published 2023)", "key": {"[1]": {"test": "Plasma and tissue exposure after single PO administration", "assay_type": "in vivo, C57BL/6 female mice", "settings": "single PO 30 mg/kg", "method": "Twelve treatment-naïve C57BL/6 female mice were assigned to the study. […] At 1, 3, and 6 hours (h) post-dose, 4 mice/time point were subjected to terminal bleeds and euthanized; Peyer's patches (PPs), mesenteric lymph nodes (MLNs), small intestine, and colon were collected from each animal. The blood was processed to plasma; plasma and the tissue samples were submitted for pharmacokinetic (PK) analysis of Compound A levels using a qualified liquid chromatography tandem mass spectrometry (LC-MS/MS) method.\nProcessed plasma and tissue samples were analyzed on an AB/MDS Sciex API 4000 mass spectrometer. Positive ions were monitored in the multiple reaction-monitoring (MRM) mode. Quantitation was by peak area ratio.\nPK data analysis was carried out using non-compartmental analysis (NCA) in Phoenix WinNonlin 8.1 (Certara USA Inc.). All concentration values below the lower limit of quantitation were treated as zero for the pharmacokinetic analysis. The maximum concentration (Cmax) and the apparent time to Cmax (tmax) were obtained by observation. The area under the concentration versus time curve (AUC) was obtained by the linear trapezoidal method. All concentration data and PK parameters were reported at up to three significant figures if the value was greater than one, and at up to three decimal places if the value was less than one. Time parameters were reported at up to two decimal places. The concentration data were plotted using Excel (Microsoft)."}, "[2]": {"test": "Safety and tolerability in healthy volunteers", "settings": "for tolerability: single and multiple oral doses"}, "α4β7 receptor occupancy": {"target": "T1, α4β7 receptor occupancy (Homo sapiens, UniProt P13612+P26010)", "T1 construct": "the amount of α4β7 expression on the cell surface of circulating lymphocytes; endogenous in cells; host or cells: heparinized whole blood of healthy volunteers", "T1 sequence (P13612 34-1032)": "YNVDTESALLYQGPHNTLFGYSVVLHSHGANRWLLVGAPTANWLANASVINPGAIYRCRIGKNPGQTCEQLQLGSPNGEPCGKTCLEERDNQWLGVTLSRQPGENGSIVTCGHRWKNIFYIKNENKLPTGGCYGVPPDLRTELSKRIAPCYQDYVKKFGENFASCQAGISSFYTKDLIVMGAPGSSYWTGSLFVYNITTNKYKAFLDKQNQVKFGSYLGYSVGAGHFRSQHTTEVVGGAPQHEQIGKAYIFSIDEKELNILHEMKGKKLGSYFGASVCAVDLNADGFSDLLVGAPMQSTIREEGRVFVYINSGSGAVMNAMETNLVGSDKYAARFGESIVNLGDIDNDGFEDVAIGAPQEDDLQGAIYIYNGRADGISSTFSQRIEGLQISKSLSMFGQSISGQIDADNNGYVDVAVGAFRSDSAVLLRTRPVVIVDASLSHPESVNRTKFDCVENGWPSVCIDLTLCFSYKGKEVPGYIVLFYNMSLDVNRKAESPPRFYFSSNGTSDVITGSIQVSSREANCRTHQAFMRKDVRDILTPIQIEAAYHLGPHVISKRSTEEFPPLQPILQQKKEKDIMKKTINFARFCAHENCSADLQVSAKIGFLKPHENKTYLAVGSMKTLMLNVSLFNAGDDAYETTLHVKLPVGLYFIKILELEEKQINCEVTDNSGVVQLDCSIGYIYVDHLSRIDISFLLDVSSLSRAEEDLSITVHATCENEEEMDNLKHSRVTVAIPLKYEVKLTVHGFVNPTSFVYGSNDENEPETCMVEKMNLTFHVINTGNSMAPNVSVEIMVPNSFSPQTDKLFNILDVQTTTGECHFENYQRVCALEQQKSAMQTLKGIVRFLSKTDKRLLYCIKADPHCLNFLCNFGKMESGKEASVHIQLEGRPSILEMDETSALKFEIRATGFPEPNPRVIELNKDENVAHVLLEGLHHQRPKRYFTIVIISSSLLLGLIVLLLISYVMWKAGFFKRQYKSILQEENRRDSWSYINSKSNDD", "T1 sequence (P26010 20-798)": "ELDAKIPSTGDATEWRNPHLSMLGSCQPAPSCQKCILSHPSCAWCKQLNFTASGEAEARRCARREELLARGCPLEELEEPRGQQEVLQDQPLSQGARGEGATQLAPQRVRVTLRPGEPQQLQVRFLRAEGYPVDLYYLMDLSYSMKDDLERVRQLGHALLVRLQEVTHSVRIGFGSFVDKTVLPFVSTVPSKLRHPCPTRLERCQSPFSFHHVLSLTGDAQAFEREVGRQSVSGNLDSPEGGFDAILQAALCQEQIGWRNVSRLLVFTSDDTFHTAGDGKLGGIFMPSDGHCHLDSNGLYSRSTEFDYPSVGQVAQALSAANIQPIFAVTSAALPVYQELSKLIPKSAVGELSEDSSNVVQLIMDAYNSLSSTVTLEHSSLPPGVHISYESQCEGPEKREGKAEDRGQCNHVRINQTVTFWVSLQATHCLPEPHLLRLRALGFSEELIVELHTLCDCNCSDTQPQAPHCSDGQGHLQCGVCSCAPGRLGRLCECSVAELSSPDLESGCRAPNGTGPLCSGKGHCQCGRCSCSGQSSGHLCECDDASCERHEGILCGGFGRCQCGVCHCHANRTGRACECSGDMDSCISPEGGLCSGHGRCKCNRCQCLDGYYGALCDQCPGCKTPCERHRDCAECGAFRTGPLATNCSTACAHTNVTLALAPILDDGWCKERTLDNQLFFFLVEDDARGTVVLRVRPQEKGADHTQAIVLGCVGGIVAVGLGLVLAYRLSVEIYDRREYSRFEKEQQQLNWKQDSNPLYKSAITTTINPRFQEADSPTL", "test": "Plasma concentration-receptor occupancy relationship, sigmoid Emax (Hill) model", "settings": "in vivo"}, "α4β7 / MAdCAM1": {"target": "T2, α4β7 / MAdCAM1 (Homo sapiens, UniProt P13612+P26010)", "T2 construct": "endogenous in cells", "T2 sequence (P13612 34-1032)": "as the sequence (P13612 34-1032) above", "T2 sequence (P26010 20-798)": "as the sequence (P26010 20-798) above", "test": "Adhesion of CD4+ T memory cells to MAdCAM1", "assay_type": "cell-based", "method": "After incubation, cells were washed extensively to remove excess peptide. For each reaction, an aliquot of cells was stained for α4β7 expression, while a separate aliquot was tested for adhesion to MAdCAM1."}}, "note": "Like-named read-outs stand apart in the source and are kept apart here. Numbered stars: 1 amine (or outer) side, 2 acyl side, 3 side chain; on linkers, the order of the positions; unused ones are H or OH. Bridge positions count the residues as written; N and C are the ends. Square brackets hold non-standard residues; d marks the D form. Peptide text beside a SMILES is read from it. I, II: the chains in the order shown. ξ: configuration not given here. Phe(4-tBu) = CC(C)(C)c1ccc(C[C@H](N)C(=O)O)cc1; Diglycolyl = O=C(COCC(=O)[*:2])[*:1]; NMeR = CN[C@@H](CCCNC(=N)N)C(=O)O; β3hE = N[C@@H](CCC(=O)O)CC(=O)O; Thr(3ξ) = CC(O)[C@H](N)C(=O)O; X1 = O=C(c1ccccc1C[*:2])[*:1]; Pen = CC(C)(S)[C@H](N)C(=O)O"}
{"compound": "CC(C)C[C@@H]1NC(=O)[C@H](C(C)O)NC(=O)[C@H](CC(=O)O)NC(=O)[C@H](CO)NC(=O)[C@H](CCCNC(=N)N)N(C)C(=O)c2ccccc2CSC(C)(C)[C@@H](C(=O)N[C@@H](Cc2ccc(C(C)(C)C)cc2)C(=O)N[C@@H](CCC(=O)O)CC(=O)N[C@H](CCCCNC(=O)COCC(=O)NCCCC[C@@H](NC(=O)C[C@H](CCC(=O)O)NC(=O)[C@H](Cc2ccc(C(C)(C)C)cc2)NC(=O)[C@H]2NC(=O)[C@H](CC(C)C)NC(=O)[C@H](C(C)O)NC(=O)[C@H](CC(=O)O)NC(=O)[C@H](CO)NC(=O)[C@H](CCCNC(=N)N)N(C)C(=O)c3ccccc3CSC2(C)C)C(=O)O)C(=O)O)NC1=O", "note": "(stereo partly drawn) [Compound A, ((2-Benzyl)-(N-Me-R)-Ser-Asp-Thr-Leu-Pen-(Phe(4-tBlu))-(β-homo-Glu)-(D-Lys)-OH)2 (SEQ ID NO: 5) and linker-DIG diglycolic acid] (I: [NMeR]SD[Thr(3ξ)]L[Pen][Phe(4-tBu)][β3hE][dK]-OH / II: [NMeR]SD[Thr(3ξ)]L[Pen][Phe(4-tBu)][β3hE][dK]-OH; linker I:9-II:9 via Diglycolyl; linker I:N-I:6, II:N-II:6 via X1)", "values": [{"measurement": "Cmax", "setting": "[1]; female, C57BL/6, mouse, mesenteric lymph nodes, read-out: mean Cmax, MLNs", "result": 56.8, "unit": "ng/g"}, {"measurement": "AUC", "setting": "[1]; female, C57BL/6, mouse, plasma", "result": 95.4, "unit": "ng·h/mL"}, {"measurement": "Cmax", "setting": "[1]; female, C57BL/6, mouse, plasma, read-out: mean Cmax, plasma", "result": 19, "unit": "ng/mL"}, {"measurement": "Cmax", "setting": "[1]; female, C57BL/6, mouse, small intestine, read-out: mean Cmax, small intestine", "result": 13300, "unit": "ng/g"}, {"measurement": "mean AUC, MLNs", "setting": "[1]", "result": 226, "unit": "ng·h/g"}, {"measurement": "mean AUC, PPs", "setting": "[1]", "result": 37900, "unit": "ng·h/g"}, {"measurement": "mean AUC, colon", "setting": "[1]", "result": 15700, "unit": "ng·h/g"}, {"measurement": "mean AUC, small intestine", "setting": "[1]", "result": 48600, "unit": "ng·h/g"}, {"measurement": "mean Cmax in PPs and colon relative to small intestine", "setting": "[1]", "result": "approximately two-fold lower"}, {"measurement": "time of peak exposure, MLNs", "setting": "[1]", "result": 1, "unit": "h"}, {"measurement": "time of peak exposure, PPs", "setting": "[1]", "result": 1, "unit": "h"}, {"measurement": "time of peak exposure, colon", "setting": "[1]", "result": 6, "unit": "h"}, {"measurement": "time of peak exposure, plasma", "setting": "[1]", "result": 3, "unit": "h"}, {"measurement": "time of peak exposure, small intestine", "setting": "[1]", "result": 1, "unit": "h"}, {"measurement": "maximally tolerated dose, multiple dose (highest dose tested)", "setting": "[2]; healthy volunteers", "result": 1000, "unit": "mg"}, {"measurement": "maximally tolerated dose, single dose (highest dose tested)", "setting": "[2]; healthy volunteers", "result": 1400, "unit": "mg"}, {"measurement": "subjects reporting AEs", "setting": "[2]; multiple doses", "result": "Thirty"}, {"measurement": "total AEs", "setting": "[2]; multiple doses", "result": 68, "unit": "AEs"}, {"measurement": "QTc prolongation", "setting": "[2]; single and multiple doses", "result": "no evidence of QTc prolongation was observed"}, {"measurement": "tolerability", "setting": "[2]", "result": "generally well tolerated"}, {"measurement": "tolerability", "setting": "[2]; listed as COMPOUND A", "result": "safe and well tolerated"}, {"measurement": "TEAEs in subjects who received drug", "setting": "[2]; single ascending dose phase", "result": 21, "unit": "events"}, {"measurement": "subjects with TEAEs who received drug", "setting": "[2]; single ascending dose phase", "result": 12, "unit": "subjects"}, {"measurement": "dose-limiting toxicities", "setting": "[2]; single doses up to 1400 mg, multiple up to 1000 mg", "result": "no dose-limiting toxicities observed"}, {"measurement": "IC50", "setting": "α4β7 receptor occupancy; read-out: estimated IC50 for receptor occupancy (converted)", "result": 0.251, "unit": "nM"}, {"measurement": "IC80", "setting": "α4β7 receptor occupancy; read-out: estimated IC80 for receptor occupancy", "result": 5.9, "unit": "ng/mL"}, {"measurement": "Maximal adhesion reduction (%)", "setting": "α4β7 / MAdCAM1; Donor 1, normalized to no-peptide control", "result": 38, "unit": "%"}, {"measurement": "Maximal adhesion reduction (%)", "setting": "α4β7 / MAdCAM1; Donor 2, normalized to no-peptide control", "result": 36, "unit": "%"}, {"measurement": "Maximal adhesion reduction (%)", "setting": "α4β7 / MAdCAM1; Mean of two donors", "result": 37, "unit": "%"}, {"measurement": "R-squared, α4β7 expression reduction vs adhesion reduction", "setting": "α4β7 / MAdCAM1; first donor", "result": 0.968}, {"measurement": "R squared, α4β7 expression reduction vs adhesion reduction", "setting": "α4β7 / MAdCAM1; second donor", "result": 0.940}]}
